In the assay the target is T1, NPRL3 (Homo sapiens, UniProt Q12980).
T1 sequence (Q12980 1-569): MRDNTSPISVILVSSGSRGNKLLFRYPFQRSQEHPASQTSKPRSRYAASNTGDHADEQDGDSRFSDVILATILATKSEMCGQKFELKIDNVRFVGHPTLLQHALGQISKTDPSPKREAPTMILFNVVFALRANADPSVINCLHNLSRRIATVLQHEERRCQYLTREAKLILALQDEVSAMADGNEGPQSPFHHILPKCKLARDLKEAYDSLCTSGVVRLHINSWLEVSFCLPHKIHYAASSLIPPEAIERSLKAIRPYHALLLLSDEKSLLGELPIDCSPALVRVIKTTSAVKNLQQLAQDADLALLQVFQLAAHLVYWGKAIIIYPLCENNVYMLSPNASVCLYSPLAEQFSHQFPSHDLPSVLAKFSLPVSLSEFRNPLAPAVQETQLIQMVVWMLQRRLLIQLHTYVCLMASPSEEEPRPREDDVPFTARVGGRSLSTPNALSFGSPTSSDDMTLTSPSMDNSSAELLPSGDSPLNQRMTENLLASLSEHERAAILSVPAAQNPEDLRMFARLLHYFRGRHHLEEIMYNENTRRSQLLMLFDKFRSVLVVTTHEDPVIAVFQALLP
The assay can be described thus: SPR (Biacore T200, immobilized recombinant NPRL3, steady-state […] fit); supported by DARTS in A549L6 lysate. The assay is classed as binding. Background: SPR reads the build-up and loss of mass on a sensor chip optically.

For one molecule, Kd results are on record in PMC11816722, “GATA3-Driven ceRNA Network in Lung Adenocarcinoma Bone Metastasis Progression and Therapeutic Implications” (Cancers, 2025).

For `O=c1[nH]nc2c3c(cccc13)N=C(CN1Cc3ccccc3C1)N2` [E7449], the Kd (usually a measure of binding affinity in units of concentration) is 11.8 µM.
